Results from PMC12951562, “SH2scan: Mapping SH2 Domain-Ligand Binding Selectivity for Inhibitors and Degraders” (Journal of Medicinal Chemistry, 2026).
Where two headings read alike, the source gives them in different places. Non-standard residues stand in square brackets, D forms with d. Residues, ends and D or L forms follow the SMILES beside them. *: point of attachment. pY = N[C@@H](Cc1ccc(OP(=O)(O)O)cc1)C(=O)O; Caffeoyl = O=C(/C=C/c1ccc(O)c(O)c1)*

How the values were obtained:
Assay in all cases: biochemical
Format in all cases: binding
[1] = target: T1, GRB10 (Homo sapiens, UniProt Q13322)
T1 construct: the DNA-tagged SH2 domain concentrations used in this study were <0.1 nM; made in house; host or cells: HEK293 (transient transfection; unpurified extract)
T1 sequence (Q13322 493-574 limits assumed): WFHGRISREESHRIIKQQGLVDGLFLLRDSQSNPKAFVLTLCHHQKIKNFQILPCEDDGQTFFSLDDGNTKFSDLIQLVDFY

[2] = target: T2, SOCS4 (Homo sapiens, UniProt Q8WXH5); details: for remaining activity at 10 µM: read-out: percent of DMSO vehicle control
T2 construct: made in house; host or cells: HEK293 (transient transfection), unpurified extract
T2 sequence (Q8WXH5 1-440): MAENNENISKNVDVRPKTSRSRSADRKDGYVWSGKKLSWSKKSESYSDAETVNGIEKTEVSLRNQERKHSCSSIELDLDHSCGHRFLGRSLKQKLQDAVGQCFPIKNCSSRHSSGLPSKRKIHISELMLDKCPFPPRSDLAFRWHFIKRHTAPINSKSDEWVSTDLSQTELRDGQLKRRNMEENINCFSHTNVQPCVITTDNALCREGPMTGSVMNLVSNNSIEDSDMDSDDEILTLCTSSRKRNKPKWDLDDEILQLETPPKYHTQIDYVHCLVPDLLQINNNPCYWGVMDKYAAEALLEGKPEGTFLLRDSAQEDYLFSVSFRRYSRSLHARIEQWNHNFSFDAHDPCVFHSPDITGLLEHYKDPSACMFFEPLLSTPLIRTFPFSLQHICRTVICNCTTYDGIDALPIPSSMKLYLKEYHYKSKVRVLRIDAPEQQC

[3] = target: T3, SHC2 (Homo sapiens, UniProt P98077); details: for remaining activity at 10 µM: read-out: percent of DMSO vehicle control
T3 construct: made in house; host or cells: HEK293 (transient transfection), unpurified extract
T3 sequence (P98077 1-582): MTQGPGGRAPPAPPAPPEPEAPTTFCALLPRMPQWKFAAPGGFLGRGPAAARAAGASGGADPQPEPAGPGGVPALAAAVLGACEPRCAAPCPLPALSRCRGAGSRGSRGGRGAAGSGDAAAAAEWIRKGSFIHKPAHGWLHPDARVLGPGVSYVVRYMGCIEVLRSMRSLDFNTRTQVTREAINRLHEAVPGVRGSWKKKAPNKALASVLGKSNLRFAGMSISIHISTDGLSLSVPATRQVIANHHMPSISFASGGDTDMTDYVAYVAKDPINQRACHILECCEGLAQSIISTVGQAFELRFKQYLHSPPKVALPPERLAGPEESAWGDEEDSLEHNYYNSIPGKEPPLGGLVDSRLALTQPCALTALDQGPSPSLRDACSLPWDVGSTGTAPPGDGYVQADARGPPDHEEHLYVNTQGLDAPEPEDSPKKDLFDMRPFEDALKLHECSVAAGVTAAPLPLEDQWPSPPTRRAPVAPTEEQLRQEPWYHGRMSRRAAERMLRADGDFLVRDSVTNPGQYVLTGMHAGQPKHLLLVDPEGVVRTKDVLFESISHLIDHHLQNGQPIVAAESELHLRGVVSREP

[4] = target: T4, SHIP1 (Homo sapiens, UniProt Q92835); details: for percent of DMSO vehicle control: primary screen, 10 μM
T4 construct: made in house; host or cells: HEK293 (transient transfection), unpurified extract
T4 sequence (Q92835 1-1189): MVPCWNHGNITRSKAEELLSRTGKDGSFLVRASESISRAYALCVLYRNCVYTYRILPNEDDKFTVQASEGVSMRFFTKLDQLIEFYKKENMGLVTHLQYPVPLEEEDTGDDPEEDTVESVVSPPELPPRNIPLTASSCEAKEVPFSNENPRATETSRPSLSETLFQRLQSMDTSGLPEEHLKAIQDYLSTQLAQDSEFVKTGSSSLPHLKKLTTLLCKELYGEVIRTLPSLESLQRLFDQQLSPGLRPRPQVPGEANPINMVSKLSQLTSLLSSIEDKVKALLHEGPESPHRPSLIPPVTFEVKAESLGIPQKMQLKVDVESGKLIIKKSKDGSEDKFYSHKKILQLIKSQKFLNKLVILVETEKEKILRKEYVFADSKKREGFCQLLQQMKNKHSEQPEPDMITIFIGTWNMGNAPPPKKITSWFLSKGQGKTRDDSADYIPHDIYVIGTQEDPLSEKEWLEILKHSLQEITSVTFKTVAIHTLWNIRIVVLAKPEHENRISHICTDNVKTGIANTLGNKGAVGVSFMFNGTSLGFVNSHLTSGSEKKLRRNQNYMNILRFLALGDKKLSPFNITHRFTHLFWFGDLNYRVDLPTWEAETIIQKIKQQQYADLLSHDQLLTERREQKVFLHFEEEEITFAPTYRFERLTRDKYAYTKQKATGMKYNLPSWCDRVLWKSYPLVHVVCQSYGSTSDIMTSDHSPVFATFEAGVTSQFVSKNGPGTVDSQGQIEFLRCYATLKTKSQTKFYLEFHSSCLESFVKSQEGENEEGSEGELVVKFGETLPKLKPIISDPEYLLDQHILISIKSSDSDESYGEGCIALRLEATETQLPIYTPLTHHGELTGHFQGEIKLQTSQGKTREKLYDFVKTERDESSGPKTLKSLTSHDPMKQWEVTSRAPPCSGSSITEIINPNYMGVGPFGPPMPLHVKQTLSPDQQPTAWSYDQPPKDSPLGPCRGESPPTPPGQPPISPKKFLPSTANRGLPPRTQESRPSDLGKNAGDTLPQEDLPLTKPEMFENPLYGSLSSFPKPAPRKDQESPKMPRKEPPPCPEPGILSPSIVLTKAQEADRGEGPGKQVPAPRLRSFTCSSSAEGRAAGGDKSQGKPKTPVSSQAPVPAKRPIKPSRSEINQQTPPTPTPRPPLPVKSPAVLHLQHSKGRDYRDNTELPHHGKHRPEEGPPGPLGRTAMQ

[5] = target: T5, LCK (Homo sapiens, UniProt P06239)
T5 construct: the DNA-tagged SH2 domain concentrations used in this study were <0.1 nM; made in house; host or cells: HEK293 (transient transfection, unpurified extract)
T5 sequence (P06239 127-224 limits assumed): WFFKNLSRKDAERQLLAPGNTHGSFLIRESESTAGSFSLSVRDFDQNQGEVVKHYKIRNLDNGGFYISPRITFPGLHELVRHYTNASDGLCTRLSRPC

[6] = target: T6, GRAP (Homo sapiens, UniProt Q13588)
T6 construct: the DNA-tagged SH2 domain concentrations used in this study were <0.1 nM; made in house; host or cells: HEK293 (transient transfection; unpurified extract)
T6 sequence (Q13588 60-154 limits assumed): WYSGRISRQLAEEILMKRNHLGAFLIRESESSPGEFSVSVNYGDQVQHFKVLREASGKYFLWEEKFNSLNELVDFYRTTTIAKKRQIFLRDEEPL

[7] = target: T7, RASA1(SH2dom.N-term.) (Homo sapiens, UniProt P20936); details: for remaining activity at 10 µM: read-out: percent of DMSO vehicle control
T7 construct: SH2dom.N-term. denotes SH2 domain closest to N-terminus of protein; made in house; host or cells: HEK293 (transient transfection), unpurified extract
T7 sequence (P20936 181-272 limits assumed): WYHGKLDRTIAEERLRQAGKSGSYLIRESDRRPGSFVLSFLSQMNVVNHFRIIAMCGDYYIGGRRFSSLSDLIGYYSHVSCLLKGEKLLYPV

[8] = target: T8, CRK (Homo sapiens, UniProt P46108)
T8 construct: the DNA-tagged SH2 domain concentrations used in this study were <0.1 nM; made in house; host or cells: HEK293 (transient transfection; unpurified extract)
T8 sequence (P46108 13-118 limits assumed): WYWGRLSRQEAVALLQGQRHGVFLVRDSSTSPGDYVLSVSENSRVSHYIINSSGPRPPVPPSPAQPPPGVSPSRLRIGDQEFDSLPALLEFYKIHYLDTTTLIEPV

[9] = target: T9, SRC (Homo sapiens, UniProt P12931); details: for remaining activity at 10 µM: read-out: percent of DMSO vehicle control
T9 construct: made in house; host or cells: HEK293 (transient transfection), unpurified extract
T9 sequence (P12931 whole entry): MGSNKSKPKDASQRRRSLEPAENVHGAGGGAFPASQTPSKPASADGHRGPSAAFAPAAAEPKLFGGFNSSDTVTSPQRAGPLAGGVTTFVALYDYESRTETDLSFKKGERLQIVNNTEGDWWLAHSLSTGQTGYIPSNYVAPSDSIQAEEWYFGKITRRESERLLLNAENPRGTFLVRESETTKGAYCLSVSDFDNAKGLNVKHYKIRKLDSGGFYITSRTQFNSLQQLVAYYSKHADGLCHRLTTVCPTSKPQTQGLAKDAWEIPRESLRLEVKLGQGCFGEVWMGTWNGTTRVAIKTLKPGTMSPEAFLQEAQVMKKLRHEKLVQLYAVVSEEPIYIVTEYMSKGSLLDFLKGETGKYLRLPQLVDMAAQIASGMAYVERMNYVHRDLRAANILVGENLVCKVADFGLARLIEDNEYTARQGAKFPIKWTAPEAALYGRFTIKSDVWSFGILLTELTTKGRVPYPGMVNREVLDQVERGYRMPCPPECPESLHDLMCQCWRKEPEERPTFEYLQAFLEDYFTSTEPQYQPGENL

[10] = read-out: percent of DMSO vehicle control
[11] = primary screen, 10 μM, read-out: percent of DMSO vehicle control

CC[C@H](C)[C@H](NC(=O)[C@H](CCC(=O)O)NC(=O)[C@H](CCC(=O)O)NC(=O)[C@H](Cc1ccc(OP(=O)(O)O)cc1)NC(C)=O)C(=O)N[C@@H](CCC(=O)O)C(N)=O [Ac-pYEEIE-NH2] (Ac-[pY]EEIE-NH2)
percent of DMSO vehicle control ([1]; primary screen, 10 μM): 155.2%
percent of DMSO vehicle control ([2]; primary screen, 10 μM): 32.2%
percent of DMSO vehicle control ([3]; primary screen, 10 μM): 138.0%
percent of DMSO vehicle control [4]: 79.4±1.4%
percent of DMSO vehicle control ([5]; primary screen, 10 μM): 44.2±3.3%
percent of DMSO vehicle control ([6]; primary screen, 10 μM): 112.9%
percent of DMSO vehicle control ([7]; primary screen, 10 μM): 121.2%
percent of DMSO vehicle control ([8]; primary screen, 10 μM): 114.0%
percent of DMSO vehicle control ([9]; primary screen, 10 μM): 68.6±4.6%

CC(=O)N[C@@H](Cc1ccc(CP(=O)(O)O)cc1)C(=O)NC1(C(=O)N[C@@H](CC(N)=O)C(=O)NCCCc2c(O)ccc3ccccc23)CCCCC1 [CGP78850]
percent of DMSO vehicle control at 10 µM [1, 10]: 88.5 ± 13.4%
remaining activity at 10 µM [2]: 101 ± 1.6%
remaining activity at 10 µM [3]: 100 ± 8.5%
percent of DMSO vehicle control [4]: 77.7±20.9%
percent of DMSO vehicle control at 10 µM [5, 10]: 46 ± 3.7%
Kd [6]: 3.3 nM
percent of DMSO vehicle control at 10 µM [6, 10]: 0%
remaining activity at 10 µM [7]: 47.6 ± 2.5%
percent of DMSO vehicle control at 10 µM [8, 10]: 88.3 ± 0.9%
remaining activity at 10 µM [9]: 99.2 ± 4.1%

CC[C@H](C)[C@H](NC(=O)[C@H](CCC(=O)O)NC(=O)[C@H](CCC(=O)O)NC(=O)[C@H](Cc1ccc(OP(=O)(O)O)cc1)NC(=O)/C=C/c1ccc(O)c(O)c1)C(=O)N[C@@H](CCC(=O)O)C(=O)O [Caffeic acid-pYEEIE] (Caffeoyl-[pY]EEIE-OH)
Kd [1]: 480 ± 79 nM
percent of DMSO vehicle control at 10 µM [1, 10]: 0.7 ± 0.9%
Kd [2]: 1500 ± 810 nM
remaining activity at 10 µM [2]: 2.5 ± 0.1%
Kd [3]: 580 ± 330 nM
remaining activity at 10 µM [3]: 0.3 ± 0.1%
Kd [4]: 5800 ± 1600 nM
percent of DMSO vehicle control [4]: 9.0±2.9%
Kd [5]: 3.7 ± 0.62 nM
percent of DMSO vehicle control at 10 µM [5, 10]: 0%
percent of DMSO vehicle control at 10 µM [6, 10]: 109.9 ± 0.3%
Kd [7]: 230 ± 410 nM
remaining activity at 10 µM [7]: 0.1%
Kd [8]: 2300 ± 670 nM
percent of DMSO vehicle control at 10 µM [8, 10]: 3.1 ± 2.8%
Kd [9]: 4.8 ± 1.3 nM
remaining activity at 10 µM [9]: 0%

O=C(CCl)Nc1cccc(CNC(=O)[C@H](Cc2ccc(OP(=O)(O)O)cc2)NC(=O)Cc2ccc(F)cc2)c1 [MN551]
remaining activity at 10 µM [1, 11]: 61.8%
Kd ([2]; dose-response, read-out: KD): 64 nM
remaining activity at 10 µM ([2]; primary screen, 10 μM): 9.6 ± 3.9%
remaining activity at 10 µM ([3]; primary screen, 10 μM): 82.9 ± 1.7%
KD ([4]; dose-response): No Hit
percent of DMSO vehicle control [4]: 19.1%
remaining activity at 10 µM [5, 11]: 98.7 ± 0.5%
remaining activity at 10 µM [6, 11]: 48.7%
remaining activity at 10 µM ([7]; primary screen, 10 μM): 94.2 ± 3%
remaining activity at 10 µM [8, 11]: 72.1 ± 0.5%
remaining activity at 10 µM ([9]; primary screen, 10 μM): 70.2 ± 6.8%
